{"source": "patent US12053533B2", "about": "“Fluorescent probe for cyclooxygenase-2” (The Board of Trustees of the University of Illinois, priority 2020, dated 2024)", "key": {"COX-2 [1]": {"molecular_target": "T1, COX-2 (Homo sapiens, UniProt P35354)", "T1 sequence (P35354 18-604)": "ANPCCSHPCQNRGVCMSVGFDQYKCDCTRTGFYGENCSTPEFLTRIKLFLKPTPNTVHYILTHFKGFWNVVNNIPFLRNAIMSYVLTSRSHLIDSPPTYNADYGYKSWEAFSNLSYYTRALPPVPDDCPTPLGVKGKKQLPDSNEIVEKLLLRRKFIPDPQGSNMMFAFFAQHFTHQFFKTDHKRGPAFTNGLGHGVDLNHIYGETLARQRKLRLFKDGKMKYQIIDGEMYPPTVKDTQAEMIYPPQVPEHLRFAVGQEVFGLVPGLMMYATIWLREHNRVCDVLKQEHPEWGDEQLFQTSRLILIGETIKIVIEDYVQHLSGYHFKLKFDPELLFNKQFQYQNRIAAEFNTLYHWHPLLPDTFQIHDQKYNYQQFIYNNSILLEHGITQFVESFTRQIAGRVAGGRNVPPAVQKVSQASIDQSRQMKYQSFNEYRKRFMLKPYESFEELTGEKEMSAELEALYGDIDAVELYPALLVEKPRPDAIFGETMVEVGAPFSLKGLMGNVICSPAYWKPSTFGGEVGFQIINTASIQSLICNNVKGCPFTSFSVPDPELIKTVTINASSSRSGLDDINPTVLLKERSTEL", "details": "comparison values for other COX-2 substrates; cited from earlier work"}, "COX-2 [2]": {"molecular_target": "T1, COX-2", "experiment": "COX-2 fluorescence assay with CoxFluor (fluorimeter / plate reader)", "format": "biochemical", "design": "made in house", "details": "COX-2 250 nM, 4 h", "experimental": "Fluorimeter Fluorescence Assay. The fluorescence assays were performed in microquartz cuvettes or submicroquartz cuvettes with a maximum volume of 600 μL. Reactions were monitored at room temperature using 540 nm excitation and emission was collected from 550-700 nm with a slit width of 1.25 mm. Total volumes of the reaction mixtures were maintained at 570 μL. […] Experiments in the presence of reduced GSH were conducted according to the same procedure, but GSH (30 μL, 19 mM in 100 mM Tris-HCl, pH 8.0) was added before the addition of CoxFluor for a final concentration of 1 mM. Assays performed in submicroquartz cuvettes were performed maintaining the same ratios, but with a final volume of 142.5 μL.\nPlate Reader Fluorescence Assay. The fluorescence assays were performed at room temperature using 540 nm excitation and 590 nm emission. Total volume of the reaction mixture was maintained at 190 μL. […] Inhibition assays were performed according to the same procedure, but COX-2 was preincubated with hemin and inhibitor for 0.5 h at 0° C. before initiation with CoxFluor. Relative fluorescence enhancement is calculated by comparing to a buffer control with 10 μM CoxFluor."}, "[3]": {"details": "ethanol; cited from earlier work"}, "[4]": {"experiment": "CoxFluor, Ctrl-CoxFluor & Resorufin stability assays", "format": "physicochemical", "details": "8 hours at room temperature or 37° C., with or without ambient light", "experimental": "CoxFluor, Ctrl-CoxFluor & Resorufin Stability Assays. Stability assays were performed for a 10 μM solution of each compound in a series of buffers/solvents (100 mM Tris-HCl at pH 8.0, DMEM with 10% FBS, DMEM without serum and DMSO). Stability was assessed at room temperature or at 37° C. and in the presence or absence of ambient light. Fluorescence was measured using the plate reader with excitation at 540 nm and emission from 560-700 nm and the relative turn-on was determined by the change of fluorescence intensity at 590 nm."}, "[5]": {"experiment": "Photophysical characterization", "format": "physicochemical", "experimental": "Photophysical Characterization. Extinction coefficients and fluorescence quantum yields were acquired (n=3) and reported as the average with a relative standard deviation less than 15%. Extinction coefficients were acquired by titrating compound in 100 mM Tris-HCl (pH 8.0) within the linear range. Fluorescence quantum yields were obtained using the modified method for relative fluorescence quantum yield. Dye was titrated into the solution and the absorbance and emission were monitored (excitation at 540 nm). The absorbance was maintained below 0.1 to limit secondary absorbance events. Total emission spectra were integrated, and the relative quantum yield was calculated relative to Rhodamine B (ϕ=0.70, ethanol). The refractive index of 100 mM Tris-HCl (pH 8.0) was measured to be 1.33514."}, "[6]": {"test_system": "COX-2 activity in HEK 293T cells over-expressing human COX-2", "experiment": "Confocal live-cell imaging of human COX-2 transfected HEK 293T cells", "format": "cell-based", "details": "indomethacin 10 μM, CoxFluor 10 μM, 3 h"}, "[7]": {"substrate": "CCCCC/C=C\\C/C=C\\C/C=C\\C/C=C\\CCCC(=O)N1c2ccc(O)cc2Oc2cc(O)ccc21", "experiment": "COX-2 fluorescence assay with CoxFluor (fluorimeter / plate reader)", "format": "biochemical, human", "details": "other: steady state; COX-2 50 nM, hemin 200 nM; pH 8.0"}}, "data": [{"molecule": "CCCCC/C=C\\C/C=C\\C/C=C\\C/C=C\\CCCC(=O)NCCO", "note": "[arachidonyl ethanolamide]", "values": [{"measurement": "Km", "setting": "COX-2 [1]", "value": 24, "unit": "µM"}]}, {"molecule": "CCN1C(=O)C=CC1=O", "note": "[NEM, N-ethylmaleimide, reference compound]", "values": [{"measurement": "effect on COX activity", "setting": "COX-2 [2]; varying N-ethylmaleimide concentrations, CoxFluor 10 μM", "value": "does not affect COX activity"}]}, {"molecule": "CCN(CC)c1ccc2c(-c3ccccc3C(=O)O)c3ccc(=[N+](CC)CC)cc-3oc2c1.[Cl-]", "note": "[Rhodamine B]", "values": [{"measurement": "quantum yield ϕ of reference standard", "setting": "[3]", "value": 0.70}]}, {"molecule": "O=c1ccc2nc3ccc(O)cc3oc-2c1", "note": "[resorufin, reference compound]", "values": [{"measurement": "stability in Tris-HCl and DMEM buffer systems", "setting": "[4]", "value": "stable"}, {"measurement": "extinction coefficient ε at 573 nm", "setting": "[5]; 100 mM Tris-HCl pH 8.0", "value": "73,000 M^−1cm^−1"}, {"measurement": "fluorescence quantum yield ΦF", "setting": "[5]; 100 mM Tris-HCl pH 8.0, relative to Rhodamine B", "value": 0.55}]}, {"molecule": "CCCCCCCCCCCCCCCCCCCC(=O)N1c2ccc(O)cc2Oc2cc(O)ccc21", "note": "[Ctrl-CoxFluor]", "values": [{"measurement": "reactivity with COX-2 under the same reaction conditions", "setting": "COX-2 [2]; hemin 1 μM", "value": "unreactive"}]}, {"molecule": "COc1ccc2c(c1)c(CC(=O)O)c(C)n2C(=O)c1ccc(Cl)cc1", "note": "[indomethacin, reference compound]", "values": [{"measurement": "fluorescence enhancement of transfected cells upon treatment with inhibitor", "setting": "[6]", "value": "no fluorescence enhancement was observed"}]}, {"molecule": "CCCCC/C=C\\C/C=C\\C/C=C\\C/C=C\\CCCC(=O)O", "note": "[AA, arachidonic acid]", "values": [{"measurement": "Km", "setting": "COX-2 [1]", "value": 6, "unit": "µM"}]}, {"molecule": "recombinant human COX-2 (Homo sapiens) (protein, made in house) ANPCCSHPCQNRGVCMSVGFDQYKCDCTRTGFYGENCSTPEFLTRIKLFLKPTPNTVHYILTHFKGFWNVVNNIPFLRNAIMSYVLTSRSHLIDSPPTYNADYGYKSWEAFSNLSYYTRALPPVPDDCPTPLGVKGKKQLPDSNEIVEKLLLRRKFIPDPQGSNMMFAFFAQHFTHQFFKTDHKRGPAFTNGLGHGVDLNHIYGETLARQRKLRLFKDGKMKYQIIDGEMYPPTVKDTQAEMIYPPQVPEHLRFAVGQEVFGLVPGLMMYATIWLREHNRVCDVLKQEHPEWGDEQLFQTSRLILIGETIKIVIEDYVQHLSGYHFKLKFDPELLFNKQFQYQNRIAAEFNTLYHWHPLLPDTFQIHDQKYNYQQFIYNNSILLEHGITQFVESFTRQIAGRVAGGRNVPPAVQKVSQASIDQSRQMKYQSFNEYRKRFMLKPYESFEELTGEKEMSAELEALYGDIDAVELYPALLVEKPRPDAIFGETMVEVGAPFSLKGLMGNVICSPAYWKPSTFGGEVGFQIINTASIQSLICNNVKGCPFTSFSVPDPELIKTVTINASSSRSGLDDINPTVLLKERSTEL", "values": [{"measurement": "Km", "setting": "[7]", "value": 22, "unit": "µM"}, {"measurement": "kcat", "setting": "[7]", "value": 0.317, "unit": "s⁻¹"}]}]}
